The source of these data is PubChem BioAssay AID504520 (The Scripps Research Institute Molecular Screening Center, 2011).

Active and inactive are the calls of the source. The rule behind the calls is not given here.

Test systems include ABHD11; LYPLA2; LYPLA1; ESD.
Holding throughout (assay): LYPLA1 inhibition and serine hydrolase selectivity, late-stage follow-up, fluorescence, gel-based ABPP, mouse proteome (AID 504520);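 note: soluble proteome from BW5147 murine T cells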
Holding throughout (details): FP-rhodamine fluorescence, stronger effect = higher value

Experiment [1] has as its target Platelet-activating factor acetylhydrolase 2, cytoplasmic (Mus musculus) (UniProt Q8VDG7).

Chain of Platelet-activating factor acetylhydrolase 2, cytoplasmic (Mus musculus) (Q8VDG7 whole entry, looked up): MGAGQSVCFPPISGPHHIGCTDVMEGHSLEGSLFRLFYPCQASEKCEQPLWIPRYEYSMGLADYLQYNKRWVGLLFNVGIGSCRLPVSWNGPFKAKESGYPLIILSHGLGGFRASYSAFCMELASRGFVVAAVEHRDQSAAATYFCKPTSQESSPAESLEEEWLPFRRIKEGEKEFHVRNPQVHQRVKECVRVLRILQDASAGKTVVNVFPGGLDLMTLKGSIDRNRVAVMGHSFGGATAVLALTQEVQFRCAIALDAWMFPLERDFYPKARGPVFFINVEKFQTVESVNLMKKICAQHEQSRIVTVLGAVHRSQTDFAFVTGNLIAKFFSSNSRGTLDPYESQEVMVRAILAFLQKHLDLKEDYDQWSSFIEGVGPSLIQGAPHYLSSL

For the compound `O=C(N(c1ccccc1)c1cccc(Br)c1)n1ncc(C(O)(c2ccccc2)c2ccccc2)n1`, the inhibition is 100% in the experiment on ABHD11 (at 0.75 µM); 0% with ABHD11 (inhibition, at 0.03 µM); 100% in the experiment with ABHD11 (inhibition, at 0.15 µM); 0% (inactive) with LYPLA2 (at 0.75 µM); 0% in the experiment with LYPLA2 (inhibition, at 0.03 µM); 0% in the experiment with LYPLA2 (inhibition, at 0.15 µM). In addition, the inhibition was 0% (inactive) in experiment [1] (PAFAH2, at 0.75 µM); 0% in experiment [1] (PAFAH2, inhibition, at 0.03 µM); 0% in experiment [1] (PAFAH2, inhibition, at 0.15 µM); 0% (inactive) with LYPLA1 (at 0.75 µM); 0% with LYPLA1 (inhibition, at 0.03 µM); 0% in the experiment on LYPLA1 (inhibition, at 0.15 µM). The inhibition in the experiment with ESD (at 0.75 µM) was 0% (inactive); in the experiment on ESD (inhibition, at 0.03 µM) it was 0%; in the experiment with ESD (inhibition, at 0.15 µM), 0%.
For `O=C(N(c1ccccc1)c1ccccc1)n1ncc(-c2cc(F)cc(F)c2)n1`, the inhibition was 50% (inactive) with ABHD11 (at 0.75 µM); 0% with ABHD11 (inhibition, at 0.03 µM); 0% with ABHD11 (inhibition, at 0.15 µM); 0% (inactive) in the experiment with LYPLA2 (at 0.75 µM); 0% in the experiment on LYPLA2 (inhibition, at 0.03 µM); 0% with LYPLA2 (inhibition, at 0.15 µM). For the same compound, the inhibition in experiment [1] (PAFAH2, at 0.75 µM) was 50% (inactive); in experiment [1] (PAFAH2, inhibition, at 0.03 µM), 0%; in experiment [1] (PAFAH2, inhibition, at 0.15 µM), 0%; in the experiment with LYPLA1 (at 0.75 µM) it was 0% (inactive); in the experiment with LYPLA1 (inhibition, at 0.03 µM) it was 0%; in the experiment on LYPLA1 (inhibition, at 0.15 µM), 0%. Moreover, the inhibition in the experiment on ESD (at 0.75 µM) is 0% (inactive); in the experiment with ESD (inhibition, at 0.03 µM) it was 0%; in the experiment on ESD (inhibition, at 0.15 µM) it was 0%.
`CN(C(=O)n1ncc(C(O)(c2ccccc2)c2ccccc2)n1)c1ccccc1`: the inhibition was 75% (inactive) in the experiment with ABHD11 (at 0.75 µM); 0% with ABHD11 (inhibition, at 0.03 µM); 0% in the experiment on ABHD11 (inhibition, at 0.15 µM); 0% (inactive) with LYPLA2 (at 0.75 µM); 0% in the experiment on LYPLA2 (inhibition, at 0.03 µM); 0% in the experiment with LYPLA2 (inhibition, at 0.15 µM). For the same compound, the inhibition in experiment [1] (PAFAH2, at 0.75 µM) was 25% (inactive); in experiment [1] (PAFAH2, inhibition, at 0.03 µM), 0%; in experiment [1] (PAFAH2, inhibition, at 0.15 µM) it was 0%; in the experiment on LYPLA1 (at 0.75 µM) it was 0% (inactive); with LYPLA1 (inhibition, at 0.03 µM) it was 0%; in the experiment on LYPLA1 (inhibition, at 0.15 µM) it was 0%. For the same compound, the inhibition with ESD (at 0.75 µM) was 0% (inactive); in the experiment with ESD (inhibition, at 0.03 µM), 0%; with ESD (inhibition, at 0.15 µM), 0%.
Take `O=C(N(c1ccccc1)c1ccccc1)n1ncc(-c2ccc(Oc3ccccc3)cc2)n1`: the inhibition is 0% (inactive) in the experiment with ABHD11 (at 0.75 µM); 0% with ABHD11 (inhibition, at 0.03 µM); 0% in the experiment on ABHD11 (inhibition, at 0.15 µM); 0% (inactive) in the experiment on LYPLA2 (at 0.75 µM); 0% in the experiment with LYPLA2 (inhibition, at 0.03 µM); 0% in the experiment with LYPLA2 (inhibition, at 0.15 µM). Moreover, the inhibition in experiment [1] (PAFAH2, at 0.75 µM) was 75% (inactive); in experiment [1] (PAFAH2, inhibition, at 0.03 µM) it was 0%; in experiment [1] (PAFAH2, inhibition, at 0.15 µM) it was 0%; in the experiment on LYPLA1 (at 0.75 µM), 0% (inactive); in the experiment on LYPLA1 (inhibition, at 0.03 µM) it was 0%; in the experiment on LYPLA1 (inhibition, at 0.15 µM) it was 0%. Besides, the inhibition was 0% (inactive) in the experiment on ESD (at 0.75 µM); 0% in the experiment with ESD (inhibition, at 0.03 µM); 0% with ESD (inhibition, at 0.15 µM).
Consider `COCC1CCCCN1C(=O)n1ncc(C(O)(c2ccccc2)c2ccccc2)n1` (stereo not given), for which the inhibition in the experiment with ABHD11 (at 0.75 µM) is 100%; with ABHD11 (inhibition, at 0.03 µM), 100%; with ABHD11 (inhibition, at 0.15 µM), 100%; in the experiment with LYPLA2 (at 0.75 µM), 0% (inactive); in the experiment on LYPLA2 (inhibition, at 0.03 µM) it was 0%; in the experiment on LYPLA2 (inhibition, at 0.15 µM) it was 0%. Moreover, the inhibition in experiment [1] (PAFAH2, at 0.75 µM) is 0% (inactive); in experiment [1] (PAFAH2, inhibition, at 0.03 µM) it was 0%; in experiment [1] (PAFAH2, inhibition, at 0.15 µM), 0%; in the experiment with LYPLA1 (at 0.75 µM), 0% (inactive); in the experiment with LYPLA1 (inhibition, at 0.03 µM), 0%; with LYPLA1 (inhibition, at 0.15 µM), 0%. In addition, the inhibition was 0% (inactive) in the experiment on ESD (at 0.75 µM); 0% in the experiment with ESD (inhibition, at 0.03 µM); 0% in the experiment on ESD (inhibition, at 0.15 µM).
Turning to `CCC1CCCCN1C(=O)n1ncc(C(O)(c2ccccc2)c2ccccc2)n1` (stereo not given), the inhibition in the experiment on ABHD11 (at 0.75 µM) was 100%; in the experiment with ABHD11 (inhibition, at 0.03 µM) it was 100%; with ABHD11 (inhibition, at 0.15 µM) it was 100%; in the experiment with LYPLA2 (at 0.75 µM), 0% (inactive); in the experiment on LYPLA2 (inhibition, at 0.03 µM) it was 0%; in the experiment with LYPLA2 (inhibition, at 0.15 µM), 0%. For the same compound, the inhibition in experiment [1] (PAFAH2, at 0.75 µM) was 0% (inactive); in experiment [1] (PAFAH2, inhibition, at 0.03 µM), 0%; in experiment [1] (PAFAH2, inhibition, at 0.15 µM) it was 0%; in the experiment with LYPLA1 (at 0.75 µM) it was 0% (inactive); in the experiment on LYPLA1 (inhibition, at 0.03 µM), 0%; in the experiment with LYPLA1 (inhibition, at 0.15 µM), 0%. For the same compound, the inhibition in the experiment with ESD (at 0.75 µM) was 0% (inactive); in the experiment on ESD (inhibition, at 0.03 µM) it was 0%; in the experiment on ESD (inhibition, at 0.15 µM), 0%.
In the case of `CC(C)CC(O)(CC(C)C)c1cnn(C(=O)N(c2ccccc2)c2ccccc2)n1`, the inhibition in the experiment with ABHD11 (at 0.75 µM) is 50% (inactive); in the experiment on ABHD11 (inhibition, at 0.03 µM) it was 0%; in the experiment on ABHD11 (inhibition, at 0.15 µM), 0%; with LYPLA2 (at 0.75 µM), 0% (inactive); in the experiment on LYPLA2 (inhibition, at 0.03 µM), 0%; in the experiment with LYPLA2 (inhibition, at 0.15 µM), 0%. The inhibition in experiment [1] (PAFAH2, at 0.75 µM) was 0% (inactive); in experiment [1] (PAFAH2, inhibition, at 0.03 µM), 0%; in experiment [1] (PAFAH2, inhibition, at 0.15 µM) it was 0%; with LYPLA1 (at 0.75 µM) it was 0% (inactive); with LYPLA1 (inhibition, at 0.03 µM), 0%; in the experiment with LYPLA1 (inhibition, at 0.15 µM), 0%. In addition, the inhibition in the experiment with ESD (at 0.75 µM) is 0% (inactive); in the experiment with ESD (inhibition, at 0.03 µM), 0%; in the experiment with ESD (inhibition, at 0.15 µM), 0%.
Regarding `COc1ccc2cc(-c3cnn(C(=O)N(c4ccccc4)c4ccccc4)n3)ccc2c1`, the inhibition was 25% (inactive) with ABHD11 (at 0.75 µM); 0% with ABHD11 (inhibition, at 0.03 µM); 0% in the experiment on ABHD11 (inhibition, at 0.15 µM); 0% (inactive) in the experiment on LYPLA2 (at 0.75 µM); 0% with LYPLA2 (inhibition, at 0.03 µM); 0% with LYPLA2 (inhibition, at 0.15 µM). The inhibition was 50% (inactive) in experiment [1] (PAFAH2, at 0.75 µM); 0% in experiment [1] (PAFAH2, inhibition, at 0.03 µM); 0% in experiment [1] (PAFAH2, inhibition, at 0.15 µM); 0% (inactive) in the experiment on LYPLA1 (at 0.75 µM); 0% in the experiment on LYPLA1 (inhibition, at 0.03 µM); 0% in the experiment on LYPLA1 (inhibition, at 0.15 µM). Further, the inhibition was 0% (inactive) in the experiment on ESD (at 0.75 µM); 0% in the experiment on ESD (inhibition, at 0.03 µM); 0% in the experiment with ESD (inhibition, at 0.15 µM).
As to `O=C(N(c1ccccc1)c1ccccc1)n1ncc(C(O)(c2ccccc2)c2ccccc2)n1`, the inhibition in the experiment on ABHD11 (at 0.75 µM) was 0% (inactive); in the experiment on ABHD11 (inhibition, at 0.03 µM), 0%; in the experiment on ABHD11 (inhibition, at 0.15 µM) it was 0%; with LYPLA2 (at 0.75 µM), 0% (inactive); with LYPLA2 (inhibition, at 0.03 µM) it was 0%; with LYPLA2 (inhibition, at 0.15 µM), 0%. In addition, the inhibition in experiment [1] (PAFAH2, at 0.75 µM) is 25% (inactive); in experiment [1] (PAFAH2, inhibition, at 0.03 µM), 0%; in experiment [1] (PAFAH2, inhibition, at 0.15 µM) it was 0%; in the experiment on LYPLA1 (at 0.75 µM), 0% (inactive); in the experiment on LYPLA1 (inhibition, at 0.03 µM), 0%; with LYPLA1 (inhibition, at 0.15 µM), 0%. The inhibition is 0% (inactive) in the experiment on ESD (at 0.75 µM); 0% in the experiment on ESD (inhibition, at 0.03 µM); 0% in the experiment on ESD (inhibition, at 0.15 µM).
Turning to `CC1CCN(C(=O)n2ncc(C(O)(c3ccccc3)c3ccccc3)n2)CC1`, the inhibition was 100% with ABHD11 (at 0.75 µM); 100% in the experiment with ABHD11 (inhibition, at 0.03 µM); 100% with ABHD11 (inhibition, at 0.15 µM); 50% (inactive) with LYPLA2 (at 0.75 µM); 0% with LYPLA2 (inhibition, at 0.03 µM); 0% with LYPLA2 (inhibition, at 0.15 µM). Moreover, the inhibition is 25% (inactive) in experiment [1] (PAFAH2, at 0.75 µM); 0% in experiment [1] (PAFAH2, inhibition, at 0.03 µM); 0% in experiment [1] (PAFAH2, inhibition, at 0.15 µM); 100% in the experiment on LYPLA1 (at 0.75 µM); 50% in the experiment on LYPLA1 (inhibition, at 0.03 µM); 100% with LYPLA1 (inhibition, at 0.15 µM). Besides, the inhibition with ESD (at 0.75 µM) was 0% (inactive); in the experiment with ESD (inhibition, at 0.03 µM) it was 0%; in the experiment on ESD (inhibition, at 0.15 µM) it was 0%.

As a reminder, the inhibition is how much of the control response was suppressed.
